Assay results as given in patent publication US12551463B2, “Dosing of a Bruton's tyrosine kinase inhibitor” (Loxo Oncology, Inc., priority 2019, dated 2026).

Experiment: Phase 1/2 clinical study: safety, treatment-emergent adverse events
Format: in vivo
Method: This study includes monotherapy as well as combination treatment parts. The monotherapy part includes Phase 1 dose escalation and dose expansion as well as Phase 2. […] Phase 1 dose escalation will proceed prior to start of Phase 1b or Phase 2. Once a recommended Phase 2 dose (RP2D) is identified in Phase 1, enrollment can commence to the Phase 1b combination therapies and Phase 2 monotherapy cohorts.
Dose escalation will follow a 3+3 design starting with a 25 mg QD dose (followed by 50 mg QD (dose level cohort 2), 100 mg QD (dose level cohort 3), 150 mg QD (dose level cohort 4), 200 mg QD (dose level cohort 5), 250 mg QD (dose level cohort 6), and 300 mg QD (dose level cohort 7)). Cycle length will be 28 days.
Any toxicity, regardless of the NCI CTCAE v.5 grade, resulting in discontinuation, does reduction or considered a DLT unless the SRC determines the toxicity if clearly unrelated to study drug (i.e., related to the patient's underlying disease other medical condition or concomitant medications).

COc1ccc(F)cc1C(=O)NCc1ccc(-c2nn([C@@H](C)C(F)(F)F)c(N)c2C(N)=O)cc1 [BTK-I, (S)-5-amino-3-(4-((5-fluoro-2-methoxybenzamido)methyl)phenyl)-1-(1,1,1-trifluoropropane-2-yl)-1H-pyrazole-4-carboxamide]
Nausea (TEAE) (150 mg QD (N = 20)): 1 (5.0) n(%)
Neutropenia (TEAE) (150 mg QD (N = 20)): 4 (20.0) n(%)
Neutrophil count decreased (TEAE) (150 mg QD (N = 20)): 3 (15.0) n(%)
Oedema peripheral (TEAE) (150 mg QD (N = 20)): 3 (15.0) n(%)
Pyrexia (TEAE) (150 mg QD (N = 20)): 1 (5.0) n(%)
Rash maculopapular (TEAE) (150 mg QD (N = 20)): 2 (10.0) n(%)
Subjects with Any TEAEs (150 mg QD (N = 20)): 20 (100.0) n(%)
Upper respiratory tract infection (TEAE) (150 mg QD (N = 20)): 7 (35.0) n(%)
Abdominal pain (TEAE) (200 mg QD (N = 238)): 14 (5.9) n(%)
Anaemia (TEAE) (200 mg QD (N = 238)): 16 (6.7) n(%)
Back pain (TEAE) (200 mg QD (N = 238)): 14 (5.9) n(%)
Constipation (TEAE) (200 mg QD (N = 238)): 14 (5.9) n(%)
Contusion (TEAE) (200 mg QD (N = 238)): 28 (11.8) n(%)
Cough (TEAE) (200 mg QD (N = 238)): 15 (6.3) n(%)
Diarrhoea (TEAE) (200 mg QD (N = 238)): 33 (13.9) n(%)
Dizziness (TEAE) (200 mg QD (N = 238)): 10 (4.2) n(%)
Dyspnoea (TEAE) (200 mg QD (N = 238)): 16 (6.7) n(%)
Fatigue (TEAE) (200 mg QD (N = 238)): 39 (16.4) n(%)
Headache (TEAE) (200 mg QD (N = 238)): 14 (5.9) n(%)
Nausea (TEAE) (200 mg QD (N = 238)): 16 (6.7) n(%)
Neutropenia (TEAE) (200 mg QD (N = 238)): 15 (6.3) n(%)
Neutrophil count decreased (TEAE) (200 mg QD (N = 238)): 10 (4.2) n(%)
Oedema peripheral (TEAE) (200 mg QD (N = 238)): 14 (5.9) n(%)
Pyrexia (TEAE) (200 mg QD (N = 238)): 17 (7.1) n(%)
Rash maculopapular (TEAE) (200 mg QD (N = 238)): 12 (5.0) n(%)
Upper respiratory tract infection (TEAE) (200 mg QD (N = 238)): 3 (1.3) n(%)
Abdominal pain (TEAE) (250 mg QD (N = 25)): 0 (0.0) n(%)
Anaemia (TEAE) (250 mg QD (N = 25)): 2 (8.0) n(%)
Back pain (TEAE) (250 mg QD (N = 25)): 3 (2.0) n(%)
Constipation (TEAE) (250 mg QD (N = 25)): 3 (12.0) n(%)
Contusion (TEAE) (250 mg QD (N = 25)): 5 (20.0) n(%)
Cough (TEAE) (250 mg QD (N = 25)): 3 (12.0) n(%)
Diarrhoea (TEAE) (250 mg QD (N = 25)): 5 (20.0) n(%)
Dizziness (TEAE) (250 mg QD (N = 25)): 1 (4.0) n(%)
Dyspnoea (TEAE) (250 mg QD (N = 25)): 2 (8.0) n(%)
Fatigue (TEAE) (250 mg QD (N = 25)): 10 (40.0) n(%)
Headache (TEAE) (250 mg QD (N = 25)): 3 (12.0) n(%)
Nausea (TEAE) (250 mg QD (N = 25)): 5 (20.0) n(%)
Neutropenia (TEAE) (250 mg QD (N = 25)): 1 (4.0) n(%)
Oedema peripheral (TEAE) (250 mg QD (N = 25)): 2 (8.0) n(%)
Pyrexia (TEAE) (250 mg QD (N = 25)): 2 (8.0) n(%)
Rash maculopapular (TEAE) (250 mg QD (N = 25)): 2 (8.0) n(%)
Subjects with Any TEAEs (250 mg QD (N = 25)): 25 (100.0) n(%)
Upper respiratory tract infection (TEAE) (250 mg QD (N = 25)): 6 (24.0) n(%)
Abdominal pain (TEAE) (Overall (N = 323)): 20 (6.2) n (%)
Anaemia (TEAE) (Overall (N = 323)): 24 (7.4) n (%)
Back pain (TEAE) (Overall (N = 323)): 25 (7.7) n (%)
Constipation (TEAE) (Overall (N = 323)): 25 (7.7) n (%)
Contusion (TEAE) (Overall (N = 323)): 42 (13.0) n (%)
Cough (TEAE) (Overall (N = 323)): 29 (9.0) n (%)
Diarrhoea (TEAE) (Overall (N = 323)): 55 (17.0) n (%)
Dizziness (TEAE) (Overall (N = 323)): 18 (5.6) n (%)
Dyspnoea (TEAE) (Overall (N = 323)): 26 (8.0) n (%)
Fatigue (TEAE) (Overall (N = 323)): 65 (20.1) n (%)
Headache (TEAE) (Overall (N = 323)): 29 (9.0) n (%)
Nausea (TEAE) (Overall (N = 323)): 30 (9.3) n (%)
Neutropenia (TEAE) (Overall (N = 323)): 24 (7.4) n (%)
Neutrophil count decreased (TEAE) (Overall (N = 323)): 22 (6.8) n (%)
Oedema peripheral (TEAE) (Overall (N = 323)): 22 (6.8) n (%)
Pyrexia (TEAE) (Overall (N = 323)): 23 (7.1) n (%)
Rash maculopapular (TEAE) (Overall (N = 323)): 20 (6.2) n (%)
Subjects with Any TEAEs (Overall (N = 323)): 264 (81.7) n (%)
Upper respiratory tract infection (TEAE) (Overall (N = 323)): 23 (7.1) n (%)
rates of atrial arrhythmias and major bleeding (human, in vivo): low rates
tolerability in patients (human, in vivo): appeared to be well tolerated
contusion, treatment emergent adverse event regardless of attribution or grade (n=42 of 323 patients): 13%
diarrhea, treatment emergent adverse event regardless of attribution or grade (n=55 of 323 patients): 17%
fatigue, treatment emergent adverse event regardless of attribution or grade (n=65 of 323 patients): 20%
maximum tolerated dose (MTD) (up to 300 mg QD): lack of an MTD
